Article PMC9322082, “Improvement in Solubility–Permeability Interplay of Psoralens from Brosimum gaudichaudii Plant Extract upon Complexation with Hydroxypropyl-β-cyclodextrin” (Molecules, 2022)
In brackets after ≈: the same amount, converted by molar mass. Several values for one entry are separate records, joined by “and”; a condition that tells them apart may be missing. Equal values may be shown once. Read-outs that look alike come from different tables or passages of the source.

Experiments:
[1] = Phase solubility studies with HP-β-CD in KRB buffer; type: physicochemical; settings: for solubility at 7 d: KRB buffer, 37 °C, thermodynamic from solid
Procedure: Phase solubility studies were performed in KRB buffer solutions (pH 7.4), as described by Higuchi and Connors. […] Samples were centrifuged (4000 rpm, 5 min) and filtered (Nylon filter; 0.45 µm) prior to the psoralens content analysis by the HPLC-DAD validated method.
The complexation efficiency (CE) was determined by using the slope of the linear phase solubility diagram as follows:CE = slope/(1 − slope)(2)

[2] = Ex vivo rat jejunal permeability (MTS-Snapwell system, A–B); type: in vitro ADME; settings: female, Wistar, rat
Procedure: (§1) Study protocol for female Wistar rats (12–14 weeks old) was approved by the Ethics Committee on Animal Use (#066/15) at the Federal University of Goiás, Goiás, Brazil. One week before starting the experiment, all animals were acclimatized at controlled conditions with regulated access to a standard food (22 ± 2 °C, 12-h light/dark cycle). After this, they fasted for 12 h with free access to water. All animals (body weight = 215 ± 12 g) were then anesthetized using a mixture of ketamine/xylazine (90.0/7.5 mg/kg). Rat jejunum was removed and immediately placed into an ice-cold KRB solution. The jejunum (20 mm) seromuscular layer was carefully stripped off from the membrane and mounted in the MTS-Snapwell system. Next, unidirectional drug transport was measured from the apical to basolateral side (A–B).
(§2) Sample aliquots (400 µL) were placed in the donor compartment (apical side).
(§3) Drug transport was measured by collecting samples (500 µL) from the receiver chamber (basolateral side) at 0, 20, 30, 40, 60, 90, and 120 min. Receiver samples were replaced with equal volume of fresh KRB solution (37 °C). The system was maintained on a plate shaker (60 rpm) inside a humidified incubator (37 ± 0.5 °C) in a controlled atmosphere (95% O2, and 5% CO2), before and during the transport experiment. Samples were analyzed by the HPLC-DAD validated method.
(§4) The change in donor and receiver concentrations was taken into consideration when the apparent permeability coefficient (Papp) was calculated using to the following equation:Papp = dQ/dt(1/CD A)(3) where dQ/dt is the appearance rate of the drug in the receiver compartment, CD is the concentration of the drug in the donor chamber at each sample interval, and A is the surface area (0.1 cm^2) of the tissue segment. The initial concentration of the drug in the donor compartment was determined experimentally, and donor concentrations at each time point were obtained by the calculation of the mass balance.
(§5) Integrity of intestinal tissue segments mounted in the MTS-Snapwell system was assessed by measuring the transepithelial electrical resistance (TEER) using the KRB solution at 37 °C as the conducting medium. Viable intestinal segments (>30 Ω·cm^2) were mounted on the permeation apparatus and subjected to a preincubation period (30 min) under a controlled atmosphere (95% O2 and 5% CO2) before starting the experiments.

rat jejunum [3] = assay: as above; type: in vitro ADME
Procedure: as §1, §2, §3, §4, §5

[4] = Preliminary in vivo studies in rats (plasma AUC); settings: rat, n = 3
[5] = Ex vivo rat jejunal permeability (MTS-Snapwell system, A–B); type: in vitro ADME; settings: female, Wistar, pH 7.4, pure compound, KRB, without stirring (0 rpm)
jejunal tissue = assay: Viability of intestinal tissue segments by TEER; type: in vitro ADME, rat
Procedure: The effects of HP-β-CD on the viability of intestinal tissue segments mounted in the MTS-Snapwell system was evaluated during incubation time (120 min) at 37 °C. For this purpose, TEER values in the presence and absence of 20% (w/w) HP-β-CD were compared.
as §5

rat jejunum [6] = test system: rat jejunum; parameters: method as in PMID 32942105; settings: 0.58 mM; BCS low/high permeability class boundary marker; n = 41; cited from earlier work
[7] = pH 7.4, marker in EBGT plant extract, HP-β-CD 70 mM
[8] = pH 7.4, marker in EBGT plant extract, KRB solution without HP-β-CD
[9] = pH 7.4, pure compound, HP-β-CD 70 mM
[10] = pH 7.4, pure compound, KRB solution without HP-β-CD, stirring 60 rpm, 120 min

## COc1c2ccoc2cc2oc(=O)ccc12 [5-MOP, 5-methoxypsoralen]
[1]; EBGT marker vs pure compound
  Kc fold lower in EBGT compared to pure compound: ~1.8 fold
[1]; pH 7.4, aqueous buffer, marker in EBGT plant extract (9.0 mg/mL), KRB pH 7.4, 37 °C, absence of HP-β-CD, read-out: intrinsic solubility (S0) in EBGT
  solubility at 7 d: 38 ± 2 µM (≈ 8.22 µg/mL)
[1]; pH 7.4, aqueous buffer, pure compound, KRB buffer pH 7.4, 37 °C, absence of HP-β-CD, read-out: intrinsic solubility (S0)
  solubility at 7 d: 32 ± 1 µM (≈ 6.92 µg/mL)
[1]; pH 7.4, aqueous with cosolvent or surfactant or cyclodextrin, aqueous solubility with 70 mM HP-β-CD in plant extract, marker in EBGT, 70 mM HP-β-CD, KRB pH 7.4, 37 °C
  solubility at 7 d: 720 ± 40 µM (≈ 156 µg/mL)
[1]; pH 7.4, aqueous with cosolvent or surfactant or cyclodextrin, aqueous solubility with 70 mM HP-β-CD, pure compound, 70 mM HP-β-CD, KRB pH 7.4, 37 °C
  solubility at 7 d: 930 ± 7 µM (≈ 201 µg/mL)
[1]; marker in EBGT plant extract
  complexation efficiency (CE) with HP-β-CD in EBGT: 0.010 ± 0.001
[1]; marker in EBGT plant extract (9.0 mg/mL), KRB pH 7.4, 37 °C, absence of HP-β-CD
  intrinsic solubility (S0) in EBGT: 40 ± 2 µM
[1]; marker in EBGT plant extract, KRB pH 7.4, 37 °C
  Kc (stability constant) with HP-β-CD in EBGT: 251.2 ± 1.4 M⁻¹
[1]; marker in EBGT, 70 mM HP-β-CD vs no HP-β-CD
  solubility increase: 18 fold
[1]; pure compound
  complexation efficiency (CE) with HP-β-CD: 0.014 ± 0.001
[1]; pure compound with HP-β-CD, indicates 1:1 complex
  phase solubility diagram profile (Higuchi-Connors): AL type
[1]; pure compound, KRB buffer pH 7.4, 37 °C, absence of HP-β-CD
  intrinsic solubility (S0): 30 ± 1 µM
[1]; pure compound, KRB pH 7.4, 37 °C, 1:1 complex
  Kc (stability constant) of HP-β-CD inclusion complex: 449.9 ± 16.6 M⁻¹ and < 500 M⁻¹
[2]; [7]
  Papp at 120 min: 3.04 ± 1.19 ×10⁻⁶ cm/s
[2]; [8]
  Papp at 120 min: 10.7 ± 1.73 ×10⁻⁶ cm/s
[2]; [9]
  Papp at 120 min: 2.05 ± 0.81 ×10⁻⁶ cm/s
[2]; [10]
  Papp at 120 min: 11.2 ± 3.28 ×10⁻⁶ cm/s
Rat jejunum [3]; EBGT markers
  permeability rate decrease after adding HP-β-CD: 4 fold
Rat jejunum [3]; pure standards
  permeability rate decrease after adding HP-β-CD: 6 fold
[4]; EBGT in HP-β-CD 70 mM solution, dose 0.12 mg/kg
  AUC: 377 ng·h/mL
[4]; EBGT uncomplexed, dose 1.5 g/kg
  AUC: 516 ng·h/mL
[5]
  Papp at 120 min: 7.8 ± 1.91 ×10⁻⁶ cm/s

## CC(O)COC[C@H]1O[C@@H]2O[C@H]3[C@H](O)[C@@H](O)[C@@H](O[C@H]4[C@H](O)[C@@H](O)[C@@H](O[C@H]5[C@H](O)[C@@H](O)[C@@H](O[C@H]6[C@H](O)[C@@H](O)[C@@H](O[C@H]7[C@H](O)[C@@H](O)[C@@H](O[C@H]8[C@H](O)[C@@H](O)[C@@H](O[C@H]1[C@H](O)[C@H]2O)O[C@@H]8COCC(C)O)O[C@@H]7COCC(C)O)O[C@@H]6COCC(C)O)O[C@@H]5COCC(C)O)O[C@@H]4COCC(C)O)O[C@@H]3COCC(C)O (stereo partly drawn) [HP-β-CD, 2-hydroxypropyl-β-cyclodextrin]
Jejunal tissue; 20% (w/w) HP-β-CD, 120 min, 37 °C, n = 16, control KRB 32 ± 9, p = 0.99
  TEER after incubation: 29 ± 7 Ω·cm^2
Jejunal tissue; HP-β-CD at high concentration (20% w/w)
  effect on viability of jejunal tissue: does not affect the viability of jejunal tissue

## O=c1ccc2cc3ccoc3cc2o1 [PSO, Psoralen]
[2]; [7]
  Papp at 120 min: 3.86 ± 1.81 ×10⁻⁶ cm/s
[2]; [8]
  Papp at 120 min: 17.6 ± 1.35 ×10⁻⁶ cm/s
[2]; [9]
  Papp at 120 min: 3.82 ± 0.62 ×10⁻⁶ cm/s
[2]; [10]
  Papp at 120 min: 21.4 ± 3.81 ×10⁻⁶ cm/s
Rat jejunum [3]; EBGT markers
  permeability rate decrease after adding HP-β-CD: 4 fold
Rat jejunum [3]; pure standards
  permeability rate decrease after adding HP-β-CD: 6 fold
[5]
  Papp at 120 min: 20.5 ± 2.82 ×10⁻⁶ cm/s

## COCCc1ccc(OCC(O)CNC(C)C)cc1 (centres unmarked) [metoprolol]
Rat jejunum [6]
  Papp: 6.21 ± 2.63 × 10^−6 cm/s
